Measured values as given in PMC12561453, “Synthesis and Structure–Activity Relationship Study of 2-(amino)quinazolin-4(3H)-one Derivatives as Potential Inhibitors of Methicillin-Resistant Staphylococcus aureus (MRSA)” (Antibiotics, 2025).
In brackets after ≈: the same amount, converted by molar mass. Read-outs that look alike come from different tables or passages of the source.

Columns and labels:
[1] = system: S. aureus USA300 JE2 expressing GFP in H460 cells; test: microbe, parasite or virus in culture; format: cell-based, Staphylococcus aureus; settings: for MIC50: Staphylococcus aureus, USA300, 24 h, read-out: H460 Assay MIC50 (MIC50 ex vivo)
Source text: Staphylococcus aureus, including MRSA, can invade host cells and replicate intracellularly, which complicates treatment with current therapies. To evaluate the intracellular antibacterial activities of the selected compounds, the fifteen compounds tested for cytotoxicity were further assessed using a cell infection model based on H460 human lung epithelial cells, which mimic MRSA-mediated pneumonia. H460 cells were infected with the USA300 JE2 expressing green fluorescent protein (GFP) and subsequently treated with the compounds in a dose–response manner, along with three reference antibiotics: vancomycin, linezolid, and erythromycin. After 24 h of incubation, bacterial loads were quantified by measuring GFP fluorescence in each well. MIC50 values determined in the H460 infection model (MIC50 ex vivo) were generally higher than those obtained from the in vitro tests, likely due to either limited compound penetration into host cells or reduced antibacterial effect of the compounds against intracellular bacteria (Figure 3, Table 2). […] These findings underscore the potential of compound 6y as a promising lead for further development as a novel antistaphylococcal agent.
To see the ex vivo antimicrobial activity of the compound, the human lung carcinoma cell line H460 (ATCC #HTB-177) was used. The H460 cells were cultured in RPMI 1640 medium with 10% fetal bovine serum (FBS) and in a 96-well microplate at 37 °C and 5% CO2. Cell lines were cultured for 2 days, until they reached full confluence in the well. S. aureus (USA300-containing and pCM29-encoding GFP) was cultured in CAMHB with 10 µg/mL of chloramphenicol, and bacterial cells were harvested. After washing the bacterial cells with phosphate-buffered saline (PBS) and suspending them in RPMI, infected H460 cells with S. aureus (1 × 10^7 CFU) and incubated them for 2.5 h. Samples were washed three times with PBS. Then, cells were treated with gentamicin (50 µg/mL of gentamicin in RPMI) and incubated for 1 h. Samples were washed with PBS, RPMI-containing diluted compounds were added, and then they were incubated at 37 °C in 5% CO2 for 24 h. To detect the Green fluorescent protein (GFP) signal, an Ensight multimode plate reader and Opera Phenix Plus (Revvity, Waltham, MA, USA) were used.
Ex vivo infection model images were generated using the Opera Phenix Plus high-content imaging system. Images were obtained by a confocal microscope with a 20× water objective lens. To detect the bacteria fluorescence signal (GFP), the Alexa 488 channel (488 nm laser/500–550 filter, Thermo Fisher Scientific, Waltham, MA, USA) was used, and the brightfield channel was used for H460 cell images.
Figure 3 Antibacterial activities of 2-(amino)quinazolin-4(3H)-one derivatives in the H460 infection model. H460 cells were infected with S. aureus USA300 JE strain expressing GFP, followed by treatment with serial dilutions of 2-(amino)quinazolin-4(3H)-one derivatives. After incubation at 37 °C for 24 h with 5% CO2, fluorescence signals of the bacteria were detected at 488 nm/510 nm using a multilabel plate reader.

S. aureus USA300 JE2 = test: Broth microdilution dose-response, S. aureus USA300 JE2 (MRSA); format: cell-based, Staphylococcus aureus; settings: for fold better antibacterial activity against JE2 compared to compound 1: JE2, versus compound 1
Source text: (§1) The antistaphylococcal activities (MIC50) of the synthesized compounds were examined via a previously described broth microdilution method against two S. aureus strains: ATCC25923, a methicillin-sensitive reference strain, and JE2, a methicillin-resistant strain of the USA300 lineage (Figure 2, Table 1).
(§2) Staphylococcus aureus USA300, a methicillin-resistant strain, was obtained from the Nebraska Transposon Mutant Library. Staphylococcus aureus ATCC25923, a pan-drug-susceptible strain, was purchased from the American Type Culture Collection (ATCC) (Manassas, VA, USA). S. aureus strains were grown in Cation-Adjusted Mueller–Hinton broth (CAMHB) (Difco) at 37 °C. Bacterial strain stocks were stored in vials with 25% glycerol at −80 °C. For each experiment, overnight cultures were prepared by inoculating a frozen bacterial strain stock in 10 mL of CAMHB medium and incubating at 37 °C in a shaking incubator (180 rpm). For the preliminary screen and dose–response experiments, 100 µL of overnight culture was inoculated into 10 mL of fresh CAMHB and incubated for 3 h at 37 °C and 180 rpm.
(§3) Antibiotic susceptibility assay was tested according to modified Clinical and Laboratory Standards Institute (CLSI) laboratory guidelines for broth microdilution assays. S. aureus was cultured in CAMHB, and bacterial cells were prepared with an OD600 of 0.005. DRC plates were prepared by adding 40 µL of bacterial suspension to each well, where 10 µL of each compound had been dispensed for […] of two-fold serial dilutions starting at […]. After incubation of the plates at 37 °C for 18–24 h with 5% CO2, the growth of S. aureus was detected by measuring the OD600nm using an Ensight (Revvity) spectrometer (Revvity, Waltham, MA, USA).
(§4) Figure 2 In vitro antibacterial activities of 2-(amino)quinazolin-4(3H)-one derivatives. S. aureus ATCC25923 (blue) and USA300 JE (orange) strains were incubated with serial dilutions of 2-(amino)quinazolin-4(3H)-one derivatives (0.19–100 µM) for 18–24 h. The dose–responses were observed by measuring OD600nm. The plots were drawn from each group of strains with nonlinear curve fits.

S. aureus ATCC25923 = test: Broth microdilution dose-response, S. aureus ATCC25923; format: cell-based, Staphylococcus aureus
Source text: as §1, §2, §3, §4

HepG2 cells = test: In vitro cytotoxicity, HepG2 viability (resazurin); format: cell-based, human; settings: Homo sapiens, HepG2, 24 h, read-out: HepG2 IC50
Protocol: The in vitro cytotoxicity of the compounds was evaluated by measuring the viability of HepG2 cells, a human liver cell line, following treatment in a dose–response manner, as previously described. […] The efficacy window was calculated as the ratio of IC50 in HepG2 cells to MIC50 against JE2.
To test cytotoxicity with compounds, the human liver cell line HepG2 (ATCC #HB-8065) was used for the assay. HepG2 was cultured in DMEM with 10% fetal bovine serum (FBS) in a 96-well microplate at 37 °C and 5% CO2. HepG2 cells were seeded at a final density of 5 × 10^4 cells/well, and DMEM-containing diluted compounds were added and incubated on the plates at 37 °C in 5% CO2 for 24 h. After that, resazurin (final concentration, 0.1 mg/mL) was added to each well and incubated on the plates at 37 °C in 5% CO2 for 2 h. To detect the fluorescence at 530 nm excitation and 590 nm emission, an Ensight multimode plate reader was used (Revvity, Waltham, MA, USA).

[2] = Staphylococcus aureus, USA300, USA300 JE2, methicillin-resistant, OD600 after 18–24 h, read-out: USA300 MIC50
[3] = USA300 JE2, methicillin-resistant, OD600 after 18–24 h, read-out: USA300 MIC50
[4] = Staphylococcus aureus, ATCC25923, methicillin-sensitive strain, OD600 after 18–24 h, read-out: ATCC25923 MIC50
[5] = methicillin-sensitive strain, OD600 after 18–24 h, read-out: ATCC25923 MIC50

## O=c1[nH]c(Nc2cc(Cl)cc(Cl)c2)nc2cc(Cl)c(Cl)cc12 [6h, 6,7-Dichloro-2-((3,5-dichlorophenyl)amino)quinazolin-4(3H)-one]
[1]
  MIC50: 4.1 µM (≈ 1.54 µg/mL)
S. aureus USA300 JE2
  fold better antibacterial activity against JE2 compared to compound 1: at least 6.5 fold
S. aureus USA300 JE2; [2]
  MIC50: 0.3 to 1.9 µM (≈ 0.113 to 0.713 µg/mL)
S. aureus USA300 JE2; [3]
  MIC50: 0.3 µM (≈ 0.113 µg/mL)
S. aureus ATCC25923; [4]
  MIC50: 3 to 6 µM (≈ 1.13 to 2.25 µg/mL)
S. aureus ATCC25923; [5]
  MIC50: 3.7 µM (≈ 1.39 µg/mL)
HepG2 cells; HepG2 cells, 24 h, resazurin
  IC50: 10.2 µM

## O=c1[nH]c(Nc2cc(Cl)cc(Cl)c2)nc2c(Cl)cc(Cl)cc12 [6i, 6,8-Dichloro-2-((3,5-dichlorophenyl)amino)quinazolin-4(3H)-one]
[1]
  MIC50: 26.5 µM (≈ 9.94 µg/mL)
S. aureus USA300 JE2
  fold better antibacterial activity against JE2 compared to compound 1: at least 6.5 fold
S. aureus ATCC25923; [4]
  MIC50: 3 to 6 µM (≈ 1.13 to 2.25 µg/mL)
S. aureus ATCC25923; [5]
  MIC50: 5.7 µM (≈ 2.14 µg/mL)
HepG2 cells; HepG2 cells, 24 h, resazurin
  IC50: 39.5 µM

## O=c1[nH]c(Nc2cc(Cl)cc(Cl)c2)nc2ccccc12 [6j, 2-((3,5-Dichlorophenyl)amino)quinazolin-4(3H)-one]
[1]
  MIC50: 35.4 µM (≈ 10.8 µg/mL)
S. aureus USA300 JE2
  fold better antibacterial activity against JE2 compared to compound 1: at least 6.5 fold
S. aureus ATCC25923; [4]
  MIC50: 3 to 6 µM (≈ 0.918 to 1.84 µg/mL)
S. aureus ATCC25923; [5]
  MIC50: 5.9 µM (≈ 1.81 µg/mL)
HepG2 cells; HepG2 cells, 24 h, resazurin
  IC50: 29.7 µM

## O=c1[nH]c(Nc2cc(Cl)cc(Cl)c2)nc2cc(C(F)(F)F)ccc12 [6k, 2-((3,5-Dichlorophenyl)amino)-7-(trifluoromethyl)quinazolin-4(3H)-one]
[1]
  MIC50: 6 µM (≈ 2.24 µg/mL)
S. aureus USA300 JE2; [2]
  MIC50: 0.3 µM (≈ 0.112 µg/mL)
S. aureus ATCC25923; [4]
  MIC50: 1.3 µM (≈ 0.486 µg/mL)
HepG2 cells; HepG2 cells, 24 h, resazurin
  IC50: 10.5 µM

## O=c1[nH]c(Nc2cc(F)cc(F)c2)nc2cc(Cl)ccc12 [6q, 7-Chloro-2-((3,5-difluorophenyl)amino)quinazolin-4(3H)-one]
[1]
  MIC50: 8.7 µM (≈ 2.68 µg/mL)
S. aureus USA300 JE2; [2]
  MIC50: 0.9 to 3 µM (≈ 0.277 to 0.923 µg/mL)
S. aureus USA300 JE2; [3]
  MIC50: 0.9 µM (≈ 0.277 µg/mL)
S. aureus ATCC25923; [4]
  MIC50: 2.1 to 4.5 µM (≈ 0.646 to 1.38 µg/mL)
S. aureus ATCC25923; [5]
  MIC50: 2.1 µM (≈ 0.646 µg/mL)
HepG2 cells; HepG2 cells, 24 h, resazurin
  IC50: 35.5 µM

## O=c1[nH]c(Nc2cccc(Cl)c2)nc2cc(Cl)ccc12 [6u, 7-Chloro-2-((3-chlorophenyl)amino)quinazolin-4(3H)-one]
[1]
  MIC50: 19.2 µM (≈ 5.88 µg/mL)
S. aureus USA300 JE2; [2]
  MIC50: 0.9 to 3 µM (≈ 0.276 to 0.918 µg/mL)
S. aureus USA300 JE2; [3]
  MIC50: 1.1 µM (≈ 0.337 µg/mL)
S. aureus ATCC25923; [4]
  MIC50: 2.1 to 4.5 µM (≈ 0.643 to 1.38 µg/mL)
S. aureus ATCC25923; [5]
  MIC50: 3.5 µM (≈ 1.07 µg/mL)
HepG2 cells; HepG2 cells, 24 h, resazurin
  IC50: 4.3 µM

## O=c1[nH]c(Nc2ccc(Cl)cc2)nc2cc(Cl)ccc12 [6v, 7-Chloro-2-((4-chlorophenyl)amino)quinazolin-4(3H)-one]
[1]
  MIC50: 23.9 µM (≈ 7.32 µg/mL)
S. aureus USA300 JE2; [2]
  MIC50: 0.9 to 3 µM (≈ 0.276 to 0.918 µg/mL)
S. aureus USA300 JE2; [3]
  MIC50: 1.7 µM (≈ 0.52 µg/mL)
S. aureus ATCC25923; [4]
  MIC50: 2.1 to 4.5 µM (≈ 0.643 to 1.38 µg/mL)
S. aureus ATCC25923; [5]
  MIC50: 2.7 µM (≈ 0.827 µg/mL)
HepG2 cells; HepG2 cells, 24 h, resazurin
  IC50: 25.5 µM

## O=c1[nH]c(NCc2ccc(Cl)cc2Cl)nc2cc(Cl)ccc12 [6x, 7-Chloro-2-((2,4-dichlorobenzyl)amino)quinazolin-4(3H)-one]
[1]
  MIC50: 17.8 µM (≈ 6.31 µg/mL)
S. aureus USA300 JE2; [2]
  MIC50: 0.9 to 3 µM (≈ 0.319 to 1.06 µg/mL)
S. aureus USA300 JE2; [3]
  MIC50: 1.7 µM (≈ 0.603 µg/mL)
S. aureus ATCC25923; [4]
  MIC50: 2.1 to 4.5 µM (≈ 0.745 to 1.6 µg/mL)
S. aureus ATCC25923; [5]
  MIC50: 3.4 µM (≈ 1.21 µg/mL)
HepG2 cells; HepG2 cells, 24 h, resazurin
  IC50: 15.3 µM

## CC[C@H]1OC(=O)[C@H](C)[C@@H](O[C@H]2C[C@@](C)(OC)[C@@H](O)[C@H](C)O2)[C@H](C)[C@@H](O[C@@H]2O[C@H](C)C[C@H](N(C)C)[C@H]2O)[C@](C)(O)C[C@@H](C)C(=O)[C@H](C)[C@@H](O)[C@]1(C)O [Erythromycin, reference compound]
[1]
  MIC50: 0.1 µM (≈ 0.0734 µg/mL)
S. aureus USA300 JE2; [2]
  MIC50: 0.49 µM (≈ 0.36 µg/mL)
S. aureus ATCC25923; [4]
  MIC50: 0.7 µM (≈ 0.514 µg/mL)
HepG2 cells; HepG2 cells, 24 h, resazurin
  IC50: > 100 µM

## CN[C@H](CC(C)C)C(=O)N[C@H]1C(=O)N[C@@H](CC(N)=O)C(=O)N[C@H]2C(=O)N[C@H]3C(=O)N[C@H](C(=O)N[C@H](C(=O)O)c4cc(O)cc(O)c4-c4cc3ccc4O)[C@H](O)c3ccc(c(Cl)c3)Oc3cc2cc(c3O[C@@H]2O[C@H](CO)[C@@H](O)[C@H](O)[C@H]2O[C@H]2C[C@](C)(N)[C@H](O)[C@H](C)O2)Oc2ccc(cc2Cl)[C@H]1O [Vancomycin, reference compound]
[1]; H460 cells infected with USA300 JE2-GFP, 24 h, GFP fluorescence
  H460 Assay MIC50 (MIC50 ex vivo): 7.7 µM
[1]
  MIC50: 7.7 µM (≈ 11.2 µg/mL)
S. aureus USA300 JE2; Staphylococcus aureus, USA300, read-out: USA300 MIC50
  MIC50: 0.35 µM (≈ 0.507 µg/mL)
S. aureus ATCC25923; Staphylococcus aureus, ATCC25923, read-out: ATCC25923 MIC50
  MIC50: 0.3 µM (≈ 0.435 µg/mL)
HepG2 cells
  IC50: > 100 µM
